From patent US12030904B2 (priority 2020, dated 2024)
Read-outs that look alike come from different tables or passages of the source.

Key:
[1] = tested on: Recombinant Respiratory Syncytial virus strain A2 containing the firefly luciferase reporter (RSV-Fluc); experiment: microbe, parasite or virus in culture; type: cell-based; conditions: human respiratory syncytial virus, NHBE
MT4 cytotoxicity (CC50) = conditions: human, MT4 cells
SARS-CoV-2 = experiment: microbe, parasite or virus in culture; type: cell-based; conditions: Severe acute respiratory syndrome coronavirus 2, read-out: SARS EC50
[2] = 72 h, read-out: RSV-Fluc EC50 (NHBE), NHBE cells, three days, Table 2

Row | SMILES | EC50 [1, 2] | EC50 ([1]; read-out: RSV EC50, Table 2a) | CC50 (MT4 cytotoxicity (CC50); MT4 CC50, Table 2a) | EC50 (SARS-CoV-2) | EC50 ([1]; read-out: RSV EC50, Table 4) | CC50 (MT4 cytotoxicity (CC50); MT4 CC50, Table 4)
1 | CCCCCCCCCCCCCCCCCCOC[C@H](COP(=O)(O)OC[C@H]1O[C@@](C#N)(c2ccc3c(N)ncnn23)[C@H](O)[C@@H]1O)OCc1cccc(F)c1 [Example 45, ((2R,3S,4R,5R)-5-(4-aminopyrrolo[2,1-f][1,2,4]triazin-7-yl)-5-cyano-3,4-dihydroxytetrahydrofuran-2-yl)methyl ((R)-2-((3-fluorobenzyl)oxy)-3-(octadecyloxy)propyl) hydrogen phosphate] | 69 nM | 69 nM | 4420 nM | 311 nM | – | –
2 | CCCCCCCCCCCCCCCCCOC[C@H](COP(=O)(O)OC[C@H]1O[C@@](C#N)(c2ccc3c(N)ncnn23)[C@H](O)[C@@H]1O)OCc1ccc(C#N)c(F)c1 [Example 94, ((2R,3S,4R,5R)-5-(4-aminopyrrolo[2,1-f][1,2,4]triazin-7-yl)-5-cyano-3,4-dihydroxytetrahydrofuran-2-yl)methyl ((R)-2-((4-cyano-3-fluorobenzyl)oxy)-3-(heptadecyloxy)propyl) hydrogen phosphate] | – | – | – | 38 nM | 38 nM | 273 nM
3 | CCCCCCCCCCCCCCCCCCOC[C@H](COP(=O)(O)OC[C@H]1O[C@@](C#N)(c2ccc3c(N)ncnn23)[C@H](O)[C@@H]1O)Oc1ccc(C#N)c(OC)c1 [Example 74, ((2R,3S,4R,5R)-5-(4-aminopyrrolo[2,1-f][1,2,4]triazin-7-yl)-5-cyano-3,4-dihydroxytetrahydrofuran-2-yl)methyl ((R)-2-(4-cyano-3-methoxyphenoxy)-3-(octadecyloxy)propyl) hydrogen phosphate] | – | – | – | 31 nM | 10 nM | 196 nM
4 | CCCCCCCCCCCCCCCCCCOC[C@H](COP(=O)(O)OC[C@H]1O[C@@](C#N)(c2ccc3c(N)ncnn23)[C@H](O)[C@@H]1O)Oc1cccc(C#N)n1 [Example 100, [(2R,3S,4R,5R)-5-(4-aminopyrrolo[2,1-f][1,2,4]triazin-7-yl)-5-cyano-3,4-dihydroxy-tetrahydrofuran-2-yl]methyl [(2R)-2-[(6-cyano-2-pyridyl)oxy]-3-octadecoxy-propyl]hydrogen phosphate] | – | – | – | 340 nM | 58 nM | 1180 nM
5 | CCCCCCCCCCCCCCCCCCOC[C@H](COP(=O)(O)OC[C@H]1O[C@@](C#N)(c2ccc3c(N)ncnn23)[C@H](O)[C@@H]1O)OC [Example 44, ((2R,3S,4R,5R)-5-(4-aminopyrrolo[2,1-f][1,2,4]triazin-7-yl)-5-cyano-3,4-dihydroxytetrahydrofuran-2-yl)methyl ((R)-2-methoxy-3-(octadecyloxy)propyl) hydrogen phosphate] | 53 nM | 53 nM | 4000 nM | 917 nM | – | –
6 | CCCCCCCCCCCCCCCCCCOC[C@H](COP(=O)(O)OC[C@H]1O[C@@](C#N)(c2ccc3c(N)ncnn23)[C@H](O)[C@@H]1O)OCc1ccc(C#N)c(F)c1 [Example 67, ((2R,3S,4R,5R)-5-(4-aminopyrrolo[2,1-f][1,2,4]triazin-7-yl)-5-cyano-3,4-dihydroxytetrahydrofuran-2-yl)methyl ((R)-2-((4-cyano-3-fluorobenzyl)oxy)-3-(octadecyloxy)propyl) hydrogen phosphate] | 7.6 nM | 19 nM | 744 nM | 229 nM | – | –
7 | CCCCCCCCCCCCCCCCCCOC[C@H](COP(=O)(O)OC[C@H]1O[C@@](C#N)(c2ccc3c(N)ncnn23)[C@H](O)[C@@H]1O)OCc1ccc(C#N)cn1 [Example 124, [(2R,3S,4R,5R)-5-(4-Aminopyrrolo[2,1-f][1,2,4]triazin-7-yl)-5-cyano-3,4-dihydroxy-tetrahydrofuran-2-yl]methyl [(2R)-2-[(5-cyano-2-pyridyl)methoxy]-3-octadecoxy-propyl] hydrogen phosphate] | – | – | – | 200 nM | 27 nM | 703 nM
8 | CCCCCCCCCCCCCCCCCCOCC(COc1ccccc1)COP(=O)(O)OC[C@H]1O[C@@](C#N)(c2ccc3c(N)ncnn23)[C@H](O)[C@@H]1O (stereo partly drawn) [Example 29, ((2R,3S,4R,5R)-5-(4-aminopyrrolo[2,1-f][1,2,4]triazin-7-yl)-5-cyano-3,4-dihydroxytetrahydrofuran-2-yl)methyl (3-(octadecyloxy)-2-(phenoxymethyl)propyl) hydrogen phosphate] | 140 nM | 140 nM | 6160 nM | 3330 nM | – | –
9 | CCCCCCCCCCCCCCCCCCOC[C@H](COP(=O)(O)OC[C@H]1O[C@@](C#N)(c2ccc3c(N)ncnn23)[C@H](O)[C@@H]1O)Oc1cnc(C#N)cn1 [Example 77, ((2R,3S,4R,5R)-5-(4-aminopyrrolo[2,1-f][1,2,4]triazin-7-yl)-5-cyano-3,4-dihydroxytetrahydrofuran-2-yl)methyl ((R)-2-((5-cyanopyrazin-2-yl)oxy)-3-(octadecyloxy)propyl) hydrogen phosphate] | – | – | – | 31 nM | 7 nM | 196 nM
10 | CCCCCCCCCCCCCCOCCCOP(=O)(O)OC[C@H]1O[C@@](C#N)(c2ccc3c(N)ncnn23)[C@H](O)[C@@H]1O [Example 58, ((2R,3S,4R,5R)-5-(4-Aminopyrrolo[2,1-f][1,2,4]triazin-7-yl)-5-cyano-3,4-dihydroxytetrahydrofuran-2-yl)methyl (3-(tetradecyloxy)propyl) hydrogen phosphate] | 70 nM | 70 nM | 13000 nM | 10000 nM | – | –
11 | CCCCCCCCCCCCCCCCCCOC[C@H](COP(=O)(O)OC[C@H]1O[C@@](C#N)(c2ccc3c(N)ncnn23)[C@H](O)[C@@H]1O)OCc1cccc(C#N)c1 [Example 39, ((2R,3S,4R,5R)-5-(4-aminopyrrolo[2,1-f][1,2,4]triazin-7-yl)-5-cyano-3,4-dihydroxytetrahydrofuran-2-yl)methyl ((R)-2-((3-cyanobenzyl)oxy)-3-(octadecyloxy)propyl) hydrogen phosphate] | 27 nM | 27 nM | 348 nM | 284 nM | – | –
12 | CCCCCCCCCCCCCCCCCCOC[C@H](COP(=O)(O)OC[C@H]1O[C@@](C#N)(c2ccc3c(N)ncnn23)[C@H](O)[C@@H]1O)OCc1cncc(C#N)c1 [Example 75, ((2R,3S,4R,5R)-5-(4-aminopyrrolo[2,1-f][1,2,4]triazin-7-yl)-5-cyano-3,4-dihydroxytetrahydrofuran-2-yl)methyl ((R)-2-((5-cyanopyridin-3-yl)methoxy)-3-(octadecyloxy)propyl) hydrogen phosphate] | – | – | – | 28 nM | 72 nM | 195 nM
13 | CCCCCCCCCCCCCCCCCCOC[C@H](COP(=O)(O)OC[C@H]1O[C@@](C#N)(c2ccc3c(N)ncnn23)[C@H](O)[C@@H]1O)Oc1ccccc1C#N [Example 73, ((2R,3S,4R,5R)-5-(4-aminopyrrolo[2,1-f][1,2,4]triazin-7-yl)-5-cyano-3,4-dihydroxytetrahydrofuran-2-yl)methyl ((R)-2-(2-cyanophenoxy)-3-(octadecyloxy)propyl) hydrogen phosphate] | – | – | – | 150 nM | 107 nM | 1200 nM
14 | CCCCCCCCCCCCCCCCCCOC[C@H](COP(=O)(O)OC[C@H]1O[C@@](C#N)(c2ccc3c(N)ncnn23)[C@H](O)[C@@H]1O)OCc1ccccc1F [Example 42, ((2R,3S,4R,5R)-5-(4-aminopyrrolo[2,1-f][1,2,4]triazin-7-yl)-5-cyano-3,4-dihydroxytetrahydrofuran-2-yl)methyl ((R)-2-((2-fluorobenzyl)oxy)-3-(octadecyloxy)propyl) hydrogen phosphate] | 35 nM | 36 nM | 2220 nM | 593 nM | – | –
15 | CCCCCCCCCCCCCCCCCCOC[C@H](COP(=O)(O)OC[C@H]1O[C@@](C#N)(c2ccc3c(N)ncnn23)[C@H](O)[C@@H]1O)OCC(C)C [Example 46, ((2R,3S,4R,5R)-5-(4-aminopyrrolo[2,1-f][1,2,4]triazin-7-yl)-5-cyano-3,4-dihydroxytetrahydrofuran-2-yl)methyl ((R)-2-isobutoxy-3-(octadecyloxy)propyl) hydrogen phosphate] | 1100 nM | 1090 nM | 50000 nM | 2470 nM | – | –
16 | CCCCCCCCCCCCCCCCCCOC[C@H](COP(=O)(O)OC[C@H]1O[C@@](C#N)(c2ccc3c(N)ncnn23)[C@H](O)[C@@H]1O)OC(C)C [Example 47, ((2R,3S,4R,5R)-5-(4-aminopyrrolo[2,1-f][1,2,4]triazin-7-yl)-5-cyano-3,4-dihydroxytetrahydrofuran-2-yl)methyl ((R)-2-isopropoxy-3-(octadecyloxy)propyl) hydrogen phosphate] | 300 nM | 297 nM | 7870 nM | 1080 nM | – | –
17 | CCCCCCCCCCCCCCCCCCOC[C@H](COP(=O)(O)OC[C@H]1O[C@@](C#N)(c2ccc3c(N)ncnn23)[C@H](O)[C@@H]1O)OCc1ccc(C#N)c(Cl)c1 [Example 23, ((2R,3S,4R,5R)-5-(4-aminopyrrolo[2,1-f][1,2,4]triazin-7-yl)-5-cyano-3,4-dihydroxytetrahydrofuran-2-yl)methyl ((R)-2-((3-chloro-4-cyanobenzyl)oxy)-3-(octadecyloxy)propyl) hydrogen phosphate] | 30 nM | 30 nM | 723 nM | 459 nM | – | –
18 | CCCCCCCCCCCCCCCCOC[C@H](COP(=O)(O)OC[C@H]1O[C@@](C#N)(c2ccc3c(N)ncnn23)[C@H](O)[C@@H]1O)OCc1ccc(C#N)cc1F [Example 112, [(2R,3S,4R,5R)-5-(4-Aminopyrrolo[2,1-f][1,2,4]triazin-7-yl)-5-cyano-3,4-dihydroxy-tetrahydrofuran-2-yl]methyl [(2R)-2-[(4-cyano-2-fluoro-phenyl)methoxy]-3-hexadecoxy-propyl] hydrogen phosphate] | – | – | – | 130 nM | 63 nM | 1940 nM
